Numbers after ± are expanded uncertainties.
Assay: xn = mol fraction of the nth substance listed
Conditions: 101 kPa, Liquid; for viscosity: Oscillating disk viscometry; for mass density: Vibrating tube method

CCN(CC)CCO [(diethylamino)ethanol] + O
Conditions	mass density, 298.15 K [kg/m3]	mass density, 313.15 K [kg/m3]	mass density, 333.15 K [kg/m3]	viscosity, 298.15 K [mPa·s]	viscosity, 303.15 K [mPa·s]	viscosity, 313.15 K [mPa·s]	viscosity, 323.15 K [mPa·s]	viscosity, 333.15 K [mPa·s]
x1 = 0.02012	993.744 ± 0.29	987.552 ± 0.29	976.86 ± 0.29	2.16 ± 0.26	1.4 ± 0.17	1.12 ± 0.13	0.94 ± 0.11	0.75 ± 0.09
x1 = 0.04547	990.151 ± 0.29	981.577 ± 0.29	968.366 ± 0.29	3.62 ± 0.44	2.34 ± 0.28	1.66 ± 0.2	1.32 ± 0.16	1.03 ± 0.12
x1 = 0.07875	983.322 ± 0.29	972.648 ± 0.29	957.191 ± 0.29	–	3.61 ± 0.44	2.42 ± 0.29	1.72 ± 0.21	1.24 ± 0.15
x1 = 0.1252	971.858 ± 0.29	959.656 ± 0.29	942.334 ± 0.28	8 ± 0.97	5.75 ± 0.69	3.76 ± 0.45	2.6 ± 0.31	1.87 ± 0.23
x1 = 0.1933	961.569 ± 0.29	948.632 ± 0.29	930.379 ± 0.29	11.61 ± 1.4	8.05 ± 0.97	5.27 ± 0.63	3.69 ± 0.44	2.53 ± 0.3

O [water] + NCCCCN
x2 = 0
Conditions	mass density [kg/m3]	viscosity [mPa·s]
298.15 K	–	0.89 ± 0.11
303.15 K	–	0.8 ± 0.1
313.15 K	–	0.65 ± 0.08
323.15 K	–	0.55 ± 0.07
333.15 K	983.2 ± 0.29	0.48 ± 0.06

O [water] + CCN(CC)CCO
x2 = 0
Conditions	mass density [kg/m3]	viscosity [mPa·s]
298.15 K	–	0.89 ± 0.11
303.15 K	–	0.8 ± 0.1
313.15 K	–	0.65 ± 0.08
323.15 K	–	0.55 ± 0.07
333.15 K	983.2 ± 0.29	0.48 ± 0.06

NCCCCN [1,4-butanediamine] + O
Conditions	mass density, 298.15 K [kg/m3]	mass density, 313.15 K [kg/m3]	mass density, 333.15 K [kg/m3]	viscosity, 303.15 K [mPa·s]	viscosity, 313.15 K [mPa·s]	viscosity, 323.15 K [mPa·s]	viscosity, 333.15 K [mPa·s]
x1 = 0.01952	992.346 ± 0.29	986.497 ± 0.29	976.433 ± 0.29	1.23 ± 0.15	0.98 ± 0.12	0.8 ± 0.1	0.63 ± 0.08
x1 = 0.04244	988.532 ± 0.3	981.237 ± 0.3	969.713 ± 0.3	1.83 ± 0.22	1.39 ± 0.17	1.1 ± 0.13	0.9 ± 0.11
x1 = 0.06965	985.772 ± 0.31	976.817 ± 0.31	963.518 ± 0.3	2.51 ± 0.3	1.85 ± 0.22	1.4 ± 0.17	1.06 ± 0.13
x1 = 0.1025	982.813 ± 0.32	972.197 ± 0.32	957.323 ± 0.31	3.65 ± 0.44	2.57 ± 0.31	1.86 ± 0.22	1.37 ± 0.17
x1 = 0.1434	978.544 ± 0.33	966.791 ± 0.33	950.667 ± 0.33	4.87 ± 0.59	3.29 ± 0.4	2.29 ± 0.28	1.62 ± 0.2

Source: the NIST ThermoML archive (doi:10.1021/je301371p)
